Measurements as given in patent US6432383B1, “Method for administering insulin” (Generex Pharmaceuticals Incorporated, priority 2000, dated 2002).

Test system: healthy non-diabetic human volunteers
Test: Blood glucose in fasted healthy non-diabetic volunteers, injected vs oral insulin (Example 1)
Assay type: in vivo
Parameters: unit not given here
Conditions: sub-cutaneous injection 10 units, avg of 5 fasted healthy volunteers
Protocol: In one set of tests, five healthy non-diabetic human volunteers were tested with insulin, by injection. In another set of tests the volunteers were tested with insulin, taken orally. The volunteers fasted from midnight prior to the test, with no food being taken during the 4 hour study.
On the first day, the volunteers received 10 units insulin by injection (regular fast acting insulin, available from Eli Lilly). On the second day, the volunteers received 100 units (1 mL volume per drop, approximately 20 drops) of the above-prepared oral insulin (10 times the injection dose). In both tests, blood glucose levels were monitored every 15 minutes by Bayer's Glucometer Elite.

**Q.** insulin [regular fast acting insulin] was tested. Which Blood glucose levels (0 min) did it give?
**A.** 5.8

**Q.** And the Blood glucose levels (15 min)?
**A.** 5.8

**Q.** What about the Blood glucose levels (30 min) of the same substance?
**A.** 5.4

**Q.** What about the Blood glucose levels (60 min) of the same substance?
**A.** 5.0

**Q.** What about the Blood glucose levels (75 min) of the same substance?
**A.** 4.6

**Q.** And the Blood glucose levels (90 min)?
**A.** 4.3

**Q.** What about the Blood glucose levels (120 min) of the same substance?
**A.** 3.8

**Q.** What about the Blood glucose levels (150 min) of the same substance?
**A.** 3.6

**Q.** And the Blood glucose levels (180 min)?
**A.** 3.4

**Q.** What about the Blood glucose levels (210 min) of the same substance?
**A.** 4.2

**Q.** What about the Blood glucose levels (240 min) of the same substance?
**A.** 4.5
